Where a name gives a salt, the structure may show the parent alone. Read-outs that look alike come from different tables or passages of the source.
Key:
[1] = system: phospho-akt (Thr308) in PC-3 cells; assay: Inhibition of phospho-akt (Thr308) in PC-3 cells, MSD phospho-akt 308 ELISA kit; type: cell-based; settings: 2 hours, no serum, read-out: EC50
Summary of the method: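 Read-out is MSD electrochemiluminescence of Akt phosphorylated at Thr308 in lysates of PC-3 cells treated 2 h with compound in serum-free medium. Wortmannin at 5 μM defined the low control and DMSO the high control.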

PDK1 = PDK1 (Homo sapiens (Human), UniProt O15530); assay: PDK1 kinase assay (coupled PDK1/AKT/FAM-crosstide assay, IMAP fluorescence polarization); type: biochemical
Summary of the method: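 Inhibition is derived by 4-parameter fitting of ΔmP from an IMAP fluorescence polarization read of FAM-crosstide (100 nM) phosphorylation. The cascade ran 30 min at 25 °C with 40 μM ATP, using insect-cell GST-PDK1 51-359 (0.75 nM) driving 10 nM unphosphorylated AKT2 140-467-PIFtide fusion.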

[2] = Homo sapiens, inhibition of P308 Akt in PC-3 cells using MSD
[3] = Homo sapiens, inhibition of P308 Akt in PC-3 cells, MSD
[4] = inhibition of phospo-PDK1 in vitro

PDK1, sequence (O15530 51-359): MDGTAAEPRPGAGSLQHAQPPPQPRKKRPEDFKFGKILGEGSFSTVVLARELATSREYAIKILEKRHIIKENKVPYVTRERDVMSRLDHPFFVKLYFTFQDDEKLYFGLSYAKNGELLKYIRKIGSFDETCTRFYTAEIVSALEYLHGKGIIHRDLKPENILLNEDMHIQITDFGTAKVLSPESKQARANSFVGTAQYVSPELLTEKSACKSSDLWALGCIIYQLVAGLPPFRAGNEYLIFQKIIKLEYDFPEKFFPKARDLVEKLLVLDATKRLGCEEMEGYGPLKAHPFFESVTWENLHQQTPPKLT

| Compound | EC50 [1, 2] [nM] | IC50 (PDK1; inhibition of PDK1 in vitro) [nM] | EC50 [1, 3] [nM] | IC50 (PDK1; [4]) [nM] | EC50 ([1]; inhibition of P308 Akt in PC-3 cells using MSD) [nM] |
| --- | --- | --- | --- | --- | --- |
| Cc1cc(-c2ccc(CNc3ncc(C#N)cc3C(=O)N[C@@H](C)c3ccc(F)cc3)cc2)cnc1N [Example 104, (S)-2-(4-(6-amino-5-methylpyridin-3-yl)benzylamino)-5-cyano-N-(1-(4-fluorophenyl)ethyl)nicotinamide] | < 1000 | < 100 |  |  |  |
| CN(C)CCCNS(=O)(=O)c1cnc(NCc2ccc(-c3ccc4ncnc(N)c4c3)s2)c(C(=O)NCc2ccc(F)c(F)c2)c1 [Example 8.6.14, 2-(((5-(4-aminoquinazolin-6-yl)thiophen-2-yl)methyl)amino)-N-(3,4-difluorobenzyl)-5-(N-(3-(dimethylamino)propyl)sulfamoyl) nicotinamide] |  |  | > 10000 | < 100 |  |
| Nc1ncnc2ccc(-c3ccc(CNc4ncccc4C(=O)NCCN4CCCC4)s3)cc12 [Example 3.36, 2-({[5-(4-aminoquinazolin-6-yl)thiophen-2-yl]methyl}amino)-N-[2-(pyrrolidin-1-yl)ethyl] pyridine-3-carboxamide (TFA salt)] |  |  | 1000 to 10000 | > 5000 |  |
| C[C@H](NC(=O)c1nc(C#N)cnc1N[C@H](C)c1ccc(-c2cnc3[nH]nc(N)c3n2)cc1)c1ccc(F)c(F)c1 [Example 411, 3-{(R)-1-[4-(3-Amino-1H-pyrazolo[3,4-b]pyrazin-5-yl)-phenyl]-ethylamino}-6-cyano-pyrazine-2-carboxylic acid [(S)-1-(3,4-difluoro-phenyl)-ethyl]-amide] | < 1000 | < 100 |  |  |  |
| Nc1ncnc2ccc(-c3ccc(CNc4ncccc4C(=O)Nc4ccc(Cl)cc4)s3)cc12 [Example 3.48, 2-({[5-(4-aminoquinazolin-6-yl)thiophen-2-yl]methyl}amino)-N-(4-chlorophenyl)pyridine-3-carboxamide (TFA salt)] |  |  | > 10000 | 100 to 1000 |  |
| Nc1ncc(-c2ccc(CNc3ncc(C(F)(F)F)cc3C(=O)Nc3ccc(F)cc3)cc2)nc1CC[C@@H]1CCCN1 [Example 75, 2-{4-[5-Amino-6-((S)-2-pyrrolidin-2-yl-ethyl)-pyrazin-2-yl]-benzylamino}-N-(4-fluoro-phenyl)-5-trifluoromethyl-nicotinamide] | 1000 to 10000 | < 100 |  |  |  |
| Cn1cnc2cnc3ccc(-c4ccc(CNc5ncc(C#N)nc5C(=O)NCc5ccc(F)c(F)c5)s4)cc3c21 [Example 3.81, 6-cyano-N-(3,4-difluorobenzyl)-3-(((5-(1-methyl-1H-imidazo [4,5-c]quinolin-8-yl)thiophen-2-yl)methyl)amino)pyrazine-2-carboxamide (TFA salt)] |  |  | < 1000 | < 100 |  |
| C[C@H](NC(=O)c1cc(C#N)cnc1NCc1ccc(-c2cnc(N)c(C3=CCNCC3)n2)cc1)c1ccc(F)cc1 [Example 233, 2-{4-[5-Amino-6-(1,2,3,6-tetrahydro-pyridin-4-yl)-pyrazin-2-yl]-benzylamino}-5-cyano-N-[(S)-1-(4-fluoro-phenyl)-ethyl]-nicotinamide] | < 1000 | < 100 |  |  |  |
| C[C@H](NC(=O)c1cc(C#N)cnc1N[C@H](C)c1ccc(-c2cnc3[nH]nc(N)c3n2)cc1)c1ccc(F)cc1 [Example 435, 2-{(R)-1-[4-(3-Amino-1H-pyrazolo[3,4-b]pyrazin-5-yl)-phenyl]-ethylamino}-5-cyano-N-[(S)-1-(4-fluoro-phenyl)-ethyl]-nicotinamide] | < 1000 | < 100 |  |  |  |
| Cn1cc(-c2ccc(CNc3ncc(C(F)(F)F)cc3C(=O)Nc3ccc(F)cc3)cc2)c2c(N)ncnc21 [Example 323, 2-(4-(4-amino-7-methyl-7H-pyrrolo[2,3-d]pyrimidin-5-yl)benzylamino)-N-(4-fluorophenyl)-5-(trifluoromethyl)nicotinamide] | < 1000 | < 100 |  |  |  |
| Nc1ncc(-c2ccc(CNc3ncc(C(F)(F)F)cc3C(=O)Nc3ccc(F)cc3)cc2)nc1CCC1CCCNC1 (centres unmarked) [Example 77, 2-{4-[5-Amino-6-(2-piperidin-3-yl-ethyl)-pyrazin-2-yl]-benzylamino}-N-(4-fluoro-phenyl)-5-trifluoromethyl-nicotinamide] | 1000 to 10000 | < 100 |  |  |  |
| C[C@H](NC(=O)c1nc(C#N)cnc1NCc1ccc(-c2cnc(N)c(CCC3CCNC3)n2)cc1)c1ccc(F)c(F)c1 (single isomer, unassigned) [Example 80] |  | < 100 |  |  | 1000 to 10000 |
| C[C@H](NC(=O)c1cc(C#N)cnc1NCc1ccc(-c2cnc(N)c(OC(F)F)c2)cc1)c1ccc(F)cc1 [Example 134, (S)-2-(4-(6-amino-5-(difluoromethoxy)pyridin-3-yl)benzylamino)-5-cyano-N-(1-(4-fluorophenyl)ethyl)nicotinamide] | < 1000 | < 100 |  |  |  |
| C[C@H](NC(=O)c1cc(C#N)cnc1NCc1ccc(-c2cnc3c(c2)CCN3)cc1)c1ccc(F)cc1 [Example 139, (S)-5-cyano-2-(4-(3,4-dihydro-1H-pyrrolo [2,3-b]pyridin-5-yl)benzylamino)-N-(1-(4-fluorophenyl)ethyl) nicotinamide] | < 1000 | < 100 |  |  |  |
| Nc1ncnc2ccc(-c3ccc(CNc4ncccc4C(=O)Nc4cccc(C(F)(F)F)c4)s3)cc12 [Example 3.53, 2-({[5-(4-aminoquinazolin-6-yl)thiophen-2-yl]methyl}amino)-N-[3-(trifluoromethyl)phenyl]pyridine-3-carboxamide (TFA salt)] |  |  | > 10000 | > 5000 |  |
| O=C(NCc1ccc(F)c(F)c1)c1cccnc1NCc1cc(-c2c[nH]c3ncccc23)cs1 [Ex. 6.15, N-(3,4-difluorobenzyl)-2-({[4-(1H-pyrrolo[2,3-b]pyridin-3-yl)thiophen-2-yl]-methyl}amino) pyridine-3-carboxamide] |  |  | > 10000 | 100 to 1000 |  |
| C[C@H](NC(=O)c1nc(C#N)cnc1NCc1ccc(-c2cnc3[nH]nc(N)c3c2)cc1)c1ccc(F)c(F)c1 [Example 25, (S)-3-(4-(3-amino-1H-pyrazolo[3,4-b]pyridin-5-yl)benzylamino)-6-cyano-N-(1-(3,4-difluorophenyl)ethyl)pyrazine-2-carboxamide] |  |  | < 1000 | < 100 |  |
| COC(=O)c1cc(-c2ccc(CNc3ncc(C#N)cc3C(=O)N[C@@H](C)c3ccc(F)cc3)cc2)cnc1N [Example 103, (S)-methyl 2-amino-5-(4-((5-cyano-3-(1-(4-fluorophenyl)ethylcarbamoyl)pyridin-2-ylamino)methyl)phenyl)nicotinate] | 1000 to 10000 | < 100 |  |  |  |
| C[C@H](NC(=O)c1nc(C#N)cnc1NCc1ccc(-c2cnc(NCCO)cn2)cc1)c1ccc(F)c(F)c1 [Example 230, 6-Cyano-3-{4-[5-(2-hydroxy-ethylamino)-pyrazin-2-yl]-benzylamino}-pyrazine-2-carboxylic acid [(S)-1-(3,4-difluoro-phenyl)-ethyl]-amide] | 1000 to 10000 | < 100 |  |  |  |
| C[C@H](NC(=O)c1cccnc1NCc1ccc(-c2cc3c(cn2)nc(N)n3C)s1)c1ccc(F)cc1 [Example 2.23, (S)-2-(((5-(2-amino-1-methyl-1H-imidazo[4,5-c]pyridin-6-yl)thiophen-2-yl)methyl)amino)-N-(1-(4-fluorophenyl)ethyl) nicotinamide] |  |  | > 10000 | 1000 to 5000 |  |
| O=C1Nc2cc(/C=C/CNc3ncccc3C(=O)NCc3ccc(F)cc3)ccc2/C1=C/c1cnc[nH]1 [Example 15.21, 2-((E)-3-((Z)-3-((1H-imidazol-5-yl)methylene)-2-oxoindolin-6-yl)allylamino)-N-(4-fluorobenzyl)nicotinamide] |  |  | < 1000 | < 100 |  |
| Nc1n[nH]c2ncc(-c3ccc(CNc4ncc(C(F)(F)F)cc4C(=O)NCc4ccc(Cl)c(F)c4)cc3)cc12 [Example 419, 2-(4-(3-amino-1H-pyrazolo [3,4-b]pyridin-5-yl)benzylamino)-N-(4-chloro-3-fluorobenzyl)-5-(trifluoromethyl)nicotinamide] | 1000 to 10000 | < 100 |  |  |  |
| CCNC(=O)c1cccnc1NCc1cccc(-c2c[nH]c3ncccc23)c1 [Example 1.11, N-ethyl-2-{[3-(1H-pyrrolo[2,3-b]pyridin-3-yl)benzyl]amino}pyridine-3-carboxamide] |  |  | 1000 to 10000 | > 5000 |  |
| C[C@H](NC(=O)c1cccnc1NCc1ccc(-c2ccc3ncnc(N)c3c2)s1)c1cc(F)cc(F)c1 [Example 3.62, (S)-2-(((5-(4-aminoquinazolin-6-yl)thiophen-2-yl)methyl)amino)-N-(1-(3,5-difluorophenyl)ethyl) nicotinamide (TFA salt)] |  |  | 1000 to 10000 | < 100 |  |
| O=C(NCc1ccc(F)c(F)c1)c1cccnc1NCc1cc(-c2c[nH]c3ncccc23)ccn1 [Example 18.1, 2-((4-(1H-pyrrolo[2,3-b]pyridin-3-yl)pyridin-2-ylmethyl)amino)-N-(3,4-difluorobenzyl)nicotinamide] |  |  | 1000 to 10000 | < 100 |  |
| C[C@H](NC(=O)c1cccnc1NCc1ccc(-c2ccc3ncc4ncn(C)c4c3c2)s1)c1ccc(F)cc1 [Example 2.18] |  |  | < 1000 | 100 to 1000 |  |
| C[C@H](NC(=O)c1cc(C(F)(F)F)cnc1NCc1ccc(-c2cnc(N)cn2)cc1)c1ccc(F)c(F)c1 [Example 382, (S)-2-(4-(5-aminopyrazin-2-yl)benzylamino)-N-(1-(3,4-difluorophenyl)ethyl)-5-(trifluoromethyl)nicotinamide] | < 1000 | < 100 |  |  |  |
| Nc1n[nH]c2ncc(-c3ccc(CNc4ncc(C(F)(F)F)cc4C(=O)Nc4ccccn4)cc3)cc12 [Example 274] | 1000 to 10000 | < 100 |  |  |  |

— US10030016B2 (Sunesis Pharmaceuticals, Inc., priority 2009, dated 2018)
